In US20250205203A1, “SUBSTITUTED PYRAZOLYL COMPOUNDS AND METHODS OF USE THEREOF” (Chinook Therapeutics Canada, Inc., priority 2020, published 2025):
pIC50: −log10 of the molar value.

How the values were obtained:
[1] = molecular target: T1, human recombinant C-terminal His-tagged LDHA (Homo sapiens (Human), UniProt P00338); test: Human LDHA enzyme assay, human serum albumin (HSA) shift assay; type: biochemical; conditions: final concentration 10% HSA
Method: (§1) Compounds were dissolved in DMSO and preincubated with human recombinant C-terminal His-tagged LDHA (0.070 μg/mL) for 10 min at room temperature in assay buffer consisting of 50 mM Tris (pH 7.5) and 100 mM NaCl in black walled, clear bottom, non-binding 96-well plates. Equal volumes of substrate solution containing 100 μM of pyruvate and 100 μM of NADH in assay buffer was added to each well (final concentration 0.035 μg/mL enzyme, 50 μM pyruvate, 50 μM NADH, and 1% DMSO). For human serum albumin (HSA) shift assay, the compounds were preincubated with the enzyme in assay buffer containing 20% HSA before substrate addition (final concentration 10% HSA). The reaction was monitored at 340 nm on a plate reader (Molecular Devices) in kinetic mode for 15 min. The rate of the reaction was determined by plotting absorbance vs time.

[2] = system: primary mouse hepatocytes; test: Primary mouse hepatocyte assay (lactate production); type: cell-based; conditions: wild type C57BL/6 hepatocytes, in presence of pyruvate
Method: LDH inhibitors can also be evaluated in an ex vivo assay consisting of primary mouse hepatocytes. Following isolation, viable wild-type murine hepatocytes are incubated with test compound in presence of pyruvate. Compound potency to modulate LDH enzymatic activity is then evaluated by measuring the conversion of pyruvate to lactate by the cells.
Compounds were evaluated in an ex vivo assay consisting of fresh primary mouse hepatocytes. Hepatocytes were isolated from wild type mice (C57BL/6NCrl from Charles River Labs) using a two-step collagenase perfusion technique which involves a sequential perfusion of anesthetized mice with Hanks' balanced salt solution and collagenase. Following isolation, viable wild type hepatocytes are incubated with test compound in presence of pyruvate and compound potency is evaluated by measuring the lactate produced by the cells using liquid chromatography coupled to mass spectrometry. Chromatographic separation was achieved on an XDB-C18 4.6×50 mm column (Agilent, Cat #927975-902) at a flow rate of 1 mL/min. Mobile phase A consisted of 0.1% formic acid in water and mobile phase B consisted of acetonitrile. A gradient program was initiated starting at 5% B which was held for 1 minutes, then ramped from 5% to 95% B over 1 minute. After holding at 95% B for 1 minute, the program changed back to 5% B. The column was equilibrated with 5% B for 1.5 minutes before the next injection. The mass spectrometer was operated in negative mode with electrospray ionization. The following transition along with their collision energy (CE) were used: 89→43 (CE: −16 V) for lactate and 92→45 (CE: −16 V) for ^13C3-Lactate (internal standard).

[3] = molecular target: T1, human recombinant C-terminal His-tagged LDHA; test: Human LDHA enzyme assay; type: biochemical; conditions: 50 μM pyruvate, 50 μM NADH, 1% DMSO
Method: Biochemical assays include recombinant human LDH enzymatic assays in which purified recombinant human lactate dehydrogenase A (LDHA) is incubated with test compound, substrate pyruvate and coenzyme […], and its enzymatic activity measured by the formation of NAD upon conversion of pyruvate to lactate.
as §1

[4] = Liver-targeted tissue distribution profile study in rats; type: in vivo, rat; conditions: PO 10 mg/kg, SD rats
Method: Plasma and liver (target organ) concentrations of test compounds were determined in rats following a single per os (PO) administration of the test compounds. Male Sprague Dawley rats (6-8 weeks of age, Charles River Labs) were fasted overnight and a single dose of test compounds (10 mg/kg; as a suspension in 0.5% methyl cellulose) was administered by PO gavage. Rats were then sacrificed at 4 and 24 h after administration of the test compounds, and plasma and liver tissue samples were collected. Liver tissue samples were homogenized in 5 volumes of water:acetonitrile (50/50; v/v) mixture using a bead mill homogenizer. Plasma and liver homogenate samples were processed by protein precipitation using acetonitrile and the concentrations of the test compounds were determined by liquid chromatography-tandem mass spectrometry (SciEx triple quad 5500+ with Exion UPLC).

[5] = PH1 patients; cited from earlier work

SMILES	pIC50 [1]	pIC50 [2]	pIC50 [3]	Measured Compound Concentration Liver-4 h [4]	Measured Compound Concentration Liver-24 h [4]	Measured Compound Concentration Plasma-4 h [4]	Measured Compound Concentration Plasma-24 h [4]	lowering urinary oxalate [5]
NS(=O)(=O)c1ccc(Cc2c(-c3ccc(F)c(C#CC4(O)CCC4)c3)nn(-c3nc(C(=O)O)cs3)c2CC2CC2)cc1F [Example 4, 2-(5-(cyclopropylmethyl)-3-(4-fluoro-3-((1-hydroxycyclobutyl)ethynyl)phenyl)-4-(3-fluoro-4-sulfamoylbenzyl)-1H-pyrazol-1-yl)thiazole-4-carboxylic acid]	8.00 to 9.00	> 7.00	> 9.00	–	–	–	–	–
CC(C)(O)C#Cc1cccc(-c2nn(-c3nc(C(=O)O)cs3)c(CC3CC3)c2Cc2ccc(S(N)(=O)=O)c(F)c2)c1 [Example 6, 2-(5-(cyclopropylmethyl)-4-(3-fluoro-4-sulfamoylbenzyl)-3-(3-(3-hydroxy-3-methylbut-1-yn-1-yl)phenyl)-1H-pyrazol-1-yl)thiazole-4-carboxylic acid]	8.00 to 9.00	> 7.00	> 9.00	++++ (++++>5 μM)	+++ (5 μM≥+++>1 μM)	+ (0.25 μM≥+>0 μM)	+ (0.25 μM≥+>0 μM)	–
CC1(C#Cc2cccc(-c3nn(-c4nc(C(=O)O)cs4)c(CC4CC4)c3Cc3ccc(S(N)(=O)=O)c(F)c3)c2)COC1 [Example 8, 2-(5-(cyclopropylmethyl)-4-(3-fluoro-4-sulfamoylbenzyl)-3-(3-((3-methyloxetan-3-yl)ethynyl)phenyl)-1H-pyrazol-1-yl)thiazole-4-carboxylic acid]	8.00 to 9.00	> 7.00	> 9.00	–	–	–	–	–
Cc1ncc(CO)c(CO)c1O [Pyridoxine]	–	–	–	–	–	–	–	approximately 30%
NS(=O)(=O)c1ccc(Cc2c(-c3cccc(C#CC4(O)COC4)c3)nn(-c3nc(C(=O)O)cs3)c2CC2CC2)cc1F [Example 9, 2-(5-(cyclopropylmethyl)-4-(3-fluoro-4-sulfamoylbenzyl)-3-(3-((3-hydroxyoxetan-3-yl)ethynyl)phenyl)-1H-pyrazol-1-yl)thiazole-4-carboxylic acid]	8.00 to 9.00	> 7.00	> 9.00	+++ (5 μM≥+++>1 μM)	++ (1 μM≥++>0.25 μM)	+ (0.25 μM≥+>0 μM)	+ (0.25 μM≥+>0 μM)	–
CC1(C#Cc2cc(-c3nn(-c4nc(C(=O)O)cs4)c(CC4CC4)c3Cc3ccc(S(N)(=O)=O)c(F)c3)ccc2F)COC1 [Example 3, 2-(5-(cyclopropylmethyl)-3-(4-fluoro-3-((3-methyloxetan-3-yl)ethynyl)phenyl)-4-(3-fluoro-4-sulfamoylbenzyl)-1H-pyrazol-1-yl)thiazole-4-carboxylic acid]	8.00 to 9.00	> 7.00	> 9.00	–	–	–	–	–
CC(C)(O)C#Cc1cc(-c2nn(-c3nc(C(=O)O)cs3)c(CC3CC3)c2Cc2ccc(S(N)(=O)=O)c(F)c2)ccc1F [Example 2, 2-(5-(Cyclopropylmethyl)-3-(4-fluoro-3-(3-hydroxy-3-methylbut-1-yn-1-yl)phenyl)-4-(3-fluoro-4-sulfamoylbenzyl)-1H-pyrazol-1-yl)thiazole-4-carboxylic acid]	> 9.00	> 7.00	> 9.00	+++ (5 μM≥+++>1 μM)	+++ (5 μM≥+++>1 μM)	+ (0.25 μM≥+>0 μM)	+ (0.25 μM≥+>0 μM)	–
NS(=O)(=O)c1ccc(Cc2c(-c3ccc(F)c(C#CC4(O)COC4)c3)nn(-c3nc(C(=O)O)cs3)c2CC2CC2)cc1F [Example 1, 2-(5-(Cyclopropylmethyl)-3-(4-fluoro-3-((3-hydroxyoxetan-3-yl)ethynyl)phenyl)-4-(3-fluoro-4-sulfamoylbenzyl)-1H-pyrazol-1-yl)thiazole-4-carboxylic acid]	8.00 to 9.00	> 7.00	> 9.00	+++ (5 μM≥+++>1 μM)	++ (1 μM≥++>0.25 μM)	+ (0.25 μM≥+>0 μM)	+ (0.25 μM≥+>0 μM)	–
NS(=O)(=O)c1ccc(Cc2c(-c3ccc(F)c(C#CC4CC4)c3)nn(-c3nc(C(=O)O)co3)c2CC2CC2)cc1F [Example 10, 2-(3-(3-(Cyclopropylethynyl)-4-fluorophenyl)-5-(cyclopropylmethyl)-4-(3-fluoro-4-sulfamoylbenzyl)-1H-pyrazol-1-yl)oxazole-4-carboxylic acid]	8.00 to 9.00	> 7.00	> 9.00	–	–	–	–	–
NS(=O)(=O)c1ccc(Cc2c(-c3ccc(F)c(C#CC4(O)CC4)c3)nn(-c3nc(C(=O)O)cs3)c2CC2CC2)cc1F [Example 5, 2-(5-(cyclopropylmethyl)-3-(4-fluoro-3-((1-hydroxycyclopropl)ethynyl)phenyl)-4-(3-fluoro-4-sulfamoylbenzyl)-1H-pyrazol-1-yl)thiazole-4-carboxylic acid]	–	–	> 9.00	–	–	–	–	–
NS(=O)(=O)c1ccc(Cc2c(-c3cccc(C#CC4COC4)c3)nn(-c3nc(C(=O)O)cs3)c2CC2CC2)cc1F [Example 7, 2-(5-(cyclopropylmethyl)-4-(3-fluoro-4-sulfamoylbenzyl)-3-(3-(oxetan-3-ylethynyl)phenyl)-1H-pyrazol-1-yl)thiazole-4-carboxylic acid]	8.00 to 9.00	> 7.00	> 9.00	++++ (++++>5 μM)	+++ (5 μM≥+++>1 μM)	+ (0.25 μM≥+>0 μM)	+ (0.25 μM≥+>0 μM)	–
